Measured values published in PMC5642495, “Characterization of a novel androgen receptor (AR) coregulator RIPK1 and related chemicals that suppress AR-mediated prostate cancer growth via peptide and chemical screening” (Oncotarget, 2017).
pIC50: −log10 of the molar value.

Experiments:
[1] = system: LNCaP; test: cell growth assay (MTT), LNCaP; format: cell-based; conditions: Homo sapiens, 48 h, Figure 4B, read-out: IC50, prostate cancer cell line growth
Method: LNCaP, CWR22R, and PC-3 cells were grown in RPMI containing 10% FBS. Cells were plated at a density of 5 × 10^4 cells/well in 24-well plates overnight and incubated with difference concentrations of chemicals for 48 h. Cell growth was assessed using the 3-{4,5-dimethylthiazol-2-yl}-2,5-diphenyltetrazolium bromide (MTT) assay. At each time-point, 50 μl of 5 mg/ml MTT was added to each well containing 500 μl medium and incubated for 3 h, followed by the addition of 500 μl isopropyl alcohol to dissolve the reduced formazan product. Absorbance of each well was measured at a wavelength of 590 nm in a DU 640B spectrophotometer (Beckman, Fullerton, CA), according to the manufacturer’s protocol. Values represent mean OD590 ± SD from at least three independent reaction wells.

[2] = system: AR transactivation; test: AR transcriptional reporter assay in PC-3 cells; format: cell-based, human; conditions: 10 nM DHT
Method: Figure 1 Associations between RIPK1 and AR (A) Co-IP of Flag-RIPK1 with Flag-AR in the 293T cell line. Extracts of 293T cells overexpressing 3xFlag-RIPK1 and 3xFlag-AR were treated with […]. IP was performed using anti-AR (C19) or anti-RIPK1 antibody or normal rabbit serum (negative control), followed by immunoblotting (IB) with antibodies against AR or RIPK1. (B) RIPK1 interacts with full-length AR and the N- and C-terminal regions of AR in GST pull-down assays. Mutation of the FxxFY motif to AxxAA in RIPK1 reduced interactions with AR. […] (C) Transfection of PC-3 prostate cancer cells with AR and RIPK1. PC-3 cells in 24-well plates were co-transfected with 300 ng MMTV-LUC reporter plasmid and 0.5 ng SV40-Renilla luciferase plasmid, together with 100 ng pCMV-Flag-AR and 100, 300 or 500 ng p3xFLAG- RIPK1. The total plasmid DNA content was made up to 1 µg with pCMV. After 16 h, ethanol or 10 nM DHT was added and cells incubated for an additional 16 h. DHT was used as the AR ligand while ARA70N served as the positive control. Relative LUC activity was determined using the dual luciferase system. (D) RIPK1 functional domain mapping in relation to AR transactivation. PC-3 cells were transfected with pCMV-Flag-AR and RIPK1 expression plasmid, P3xFlag-RIPK1 full-length, P3xFlag-RIPK1-(240-671) or P3xflag-RIPK1-(1-558) plasmid, and cultured overnight. Ethanol or 10 nM DHT was added and cells incubated for an additional 16 h. Relative LUC activity was determined using the dual luciferase system. (E) RIPK1 is expressed in benign prostatic hyperplasia tissue, displaying strong positivity (3+, > 90%) in the gland area but weak (1+, 50%) staining in the background. (F) Human prostate cancer tissues were immunostained for RIPK1. “T” indicates the tumor area (right side) and “Non-T” the non-tumor area (left side). RIPK1 expression was weak (1+, 80%) in the cancer area but remained strong (3+, 70%) in the peri-cancer area. The figures are representative of three benign prostatic gland hyperplasia and cancer tissues.
The PC-3 prostate cancer cell line was used for experiments. […]

[3] = target: T1, AR protein (Homo sapiens, UniProt P10275); test: AR protein degradation; format: cell-based; conditions: Figure 6D
T1 sequence (P10275 1-920): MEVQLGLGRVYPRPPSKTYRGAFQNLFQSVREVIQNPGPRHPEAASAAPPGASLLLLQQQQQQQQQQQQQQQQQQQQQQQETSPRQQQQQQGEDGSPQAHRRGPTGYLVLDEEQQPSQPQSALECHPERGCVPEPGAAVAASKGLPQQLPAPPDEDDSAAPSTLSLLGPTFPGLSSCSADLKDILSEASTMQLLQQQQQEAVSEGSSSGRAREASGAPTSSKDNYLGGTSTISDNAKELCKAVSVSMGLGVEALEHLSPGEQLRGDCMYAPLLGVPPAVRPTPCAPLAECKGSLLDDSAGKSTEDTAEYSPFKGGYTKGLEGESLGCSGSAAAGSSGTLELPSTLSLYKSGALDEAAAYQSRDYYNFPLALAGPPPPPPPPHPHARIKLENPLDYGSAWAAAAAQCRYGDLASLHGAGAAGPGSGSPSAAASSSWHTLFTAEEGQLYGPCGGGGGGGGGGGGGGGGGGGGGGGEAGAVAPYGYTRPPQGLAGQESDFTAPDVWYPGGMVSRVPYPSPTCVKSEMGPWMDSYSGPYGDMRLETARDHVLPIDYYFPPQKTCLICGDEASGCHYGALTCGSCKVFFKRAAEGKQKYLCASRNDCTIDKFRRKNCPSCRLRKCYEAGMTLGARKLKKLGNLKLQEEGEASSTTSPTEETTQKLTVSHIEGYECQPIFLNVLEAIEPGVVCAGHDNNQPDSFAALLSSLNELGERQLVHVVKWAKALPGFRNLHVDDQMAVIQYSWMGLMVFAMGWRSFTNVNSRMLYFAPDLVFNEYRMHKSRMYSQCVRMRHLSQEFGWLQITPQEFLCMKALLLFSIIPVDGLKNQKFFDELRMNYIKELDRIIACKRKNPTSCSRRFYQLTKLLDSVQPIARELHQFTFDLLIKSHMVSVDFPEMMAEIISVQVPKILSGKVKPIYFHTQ
Method: Figure 6 Mechanism underlying suppression of AR-related functions by oxadiazole derivatives (A–C) Transcriptional activity in reporter assays. PC-3 cells in 24-well plates were transfected as indicated below. After incubation for 16 h, cells were treated with ethanol, 10 nM DHT, or 0.01–10 μM HWC-489 or LHJ-647 for an additional 16 h. Luciferase activity in cell lysates was determined and normalized to protein concentrations. Relative luciferase activity was calculated using the luciferase reporter assay system. (A) PC-3 cells were co-transfected with 350 ng pCDNA3-flag-hAR-N (residues 1–506), 350 ng pCDNA3-hAR-C (residues 556–919), and 300 ng MMTV-Luc plasmids. (B) PC-3 cells were co-transfected with 350 ng GAL4-DBD-3-18, 350 ng pCMX-VP16-AR, and 300 ng pG5-Luc plasmids. (C) PC-3 cells were transfected with 350 ng GAL4-DBD-ARA54C, 350 ng VP16-AR, and 300 ng pG5-Luc plasmids. (D) LHJ-647 promotes AR protein degradation.

SMILES	pIC50 [1]	effect on AR transactivation in combination with enzalutamide ([2]; 1 µM enzalutamide plus 0.1 µM HWC-489 (lane 14 vs. 4))	AR protein degradation [3]	effect on AR transactivation in combination with enzalutamide ([2]; 1 µM enzalutamide plus 1 µM LHJ-647 (lane 9 vs. 4))
Cc1ccc(-c2nnc(Nc3ccccc3)o2)cc1 [HWC-489]	5.00 to 6.00	additive effect		
COc1cccc(Nc2nnc(-c3ccc(N(C)C)cc3)o2)c1 [LHJ-647]	5.00 to 6.00		promoted AR protein degradation	additive effect
